# Assay results: patent US20010055590A1, “Method for enhancing myoblast migration and invasion in the context of gene therapy” (priority 1999, published 2001)
# How the values were obtained:
# Assay type in all cases: cell-based
# MMP-1 = assay: Gelatin zymography of mouse myoblast culture medium, MMP-1; details: mouse myoblasts
# Method: Gelatin zymography for assaying MMPs was carried out as previously described (Guerin and Holland “Synthesis and secretion of matrix-degrading metalloproteinases by human skeletal muscle satellite cells” Devel. Dynamics 202:91-99,1995) with minor modifications. Briefly, myoblasts were grown in 6 cm tissue culture plates to approximately 70% confluence, then rinsed three times with serumfree DMEM and incubated for 3 hours in DMEM containing 0.2% BSA to eliminate the effects of serum. Growth factors were added and cells were incubated for 24 hours. Culture medium was then collected, centrifuged to pellet detached cells, and concentrated ten-to twenty-fold using the Centricon-10 (Amicon, Beverly, Mass.) system. The protein concentration of the supernatants was determined using the Bio-Rad protein microassay system with BSA used as the standard. Samples were stored at −70° C. until use. For gelatin zymography, aliquots (10 μg as the total protein per sample) were electrophoresed at constant voltage on a 10% polyacrylamide gel containing 2 mg/ml gelatin. […] Proteinase activity was quantified by densitometric scanning of bands using a Bio-Rad Gel Doc 1000 video camera imaging system (Bio Rad, Hercules, Calif.). […]
# mouse myoblasts [1] = assay: Migration of mouse myoblasts transiently over-expressing MMPs; details: NAC treatment, n=4
# Method: (§1) Myoblast migration and invasion were examined using a commercially available in vitro cell migration and invasion assay kit (Biocoat, Becton Dickinson, Franklin Lakes, N.J.) as described by Albini et al. (A rapid in vitro assay for quantitating the invasive potential of tumor cells Cancer Res 47:3239-3245, 1987). Myoblasts were grown to approximately 70% confluence, rinsed three times in serum-free DMEM, followed by incubation for 3 hours in 0.2% bovine serum albumin (BSA) in DMEM to eliminate the effects of serum. Cells were then trypsinized and collected by centrifugation. Cells were resuspended in serum-free DMEM at a density of 1×10^5 cells/ml, and 0.5 ml aliquots of cell suspension were added to the top chamber. […] Fibronectin subfragments of 45 KDa (Sigma), 120 kDa (Gibco), 63 kDa (Retronectin, Takara) and 70 KDa (Sigma) were used alone or in combination. The growth factor concentrations used were those which could produce maximal effects as examined in the present studies by extending from values reported by Bischoff (“Chemotaxis of skeletal muscle satellite cells” Devel. Dynamics 208:505-515, 1997). […] The number of cells per field was counted in 10 randomly selected fields and averaged for each condition. […]
# mouse myoblasts [2] = assay: Invasion of mouse myoblasts transiently over-expressing MMPs; details: NAC treatment, n=4
# Method: as §1
# MMP-9 = assay: Gelatin zymography of human myoblasts, MMP-9
# Method: Briefly, myoblasts were grown in 6 cm tissue culture plates to approximately 70% confluence, then rinsed three times with serumfree DMEM and incubated for 3 hours in DMEM containing 0.2% BSA to eliminate the effects of serum. Growth factors were added and cells were incubated for 24 hours. Culture medium was then collected, centrifuged to pellet detached cells, and concentrated ten-to twenty-fold using the Centricon-10 (Amicon, Beverly, Mass.) system. The protein concentration of the supernatants was determined using the Bio-Rad protein microassay system with BSA used as the standard. Samples were stored at −70° C. until use. For gelatin zymography, aliquots (10 μg as the total protein per sample) were electrophoresed at constant voltage on a 10% polyacrylamide gel containing 2 mg/ml gelatin. The gel was rinsed three times for 15 min in 2.5% Triton-X 100 to remove SDS and renature the proteins, then incubated in MMP activation buffer (0.05 M Tris-HCl, pH 7.5 with 5 mM CaCl2) for 24 hours at 37° C. with constant shaking. Gels were stained overnight in 0.5% Coomassie blue R-250, and destained for 1 hour in 40% methanol: 10% acetic acid. Proteinase activity was quantified by densitometric scanning of bands using a Bio-Rad Gel Doc 1000 video camera imaging system (Bio Rad, Hercules, Calif.).
# [3] = MMP-1 over-expressing myoblasts
# [4] = MMP-2 over-expressing myoblasts
compound,measurement,setting,value
human serum fibronectin,MMP-1 expression (57 kDa),MMP-1,does not significantly affect
"CC(=O)N[C@@H](CS)C(=O)O [NAC, N-acetyl cysteine, reference compound]",migration capability relative to non-NAC treated cells,mouse myoblasts [1]; [3],35%
same,migration capability relative to non-NAC treated cells,mouse myoblasts [1]; [4],22%
same,invasion relative to non-treated cells,mouse myoblasts [2]; [3],40%
same,invasion relative to non-treated cells,mouse myoblasts [2]; [4],28%
bovine basic fibroblast growth factor [bFGF],effect on MMP-9 expression (92 kDa band),MMP-9,only marginal increases in MMP-9 expression
